Data published in patent US7211577B2, “Water-soluble phenylpyridazine derivative and medicine containing the same” (Kowa Co., Ltd., priority 2003, dated 2007).
pIC50: −log10 of the molar value. Structures can show the parent of a compound that is named as a salt. Where two headings read alike, the source gives them in different places.

Tests used:
[1] = test system: interleukin-1β production; assay: Inhibitory activity against interleukin-1β production (LPS-stimulated HL-60 cells, ELISA); format: cell-based; details: Table 1, lipopolysaccharide 10 μg/mL, culturing for 3 days, read-out: IL-1β production inhibiting activity IC50
Experimental: Inhibitory Activity Against Interleukin-1β Production
HL-60 cells were cultured for 4 days until confluence on RPMI 1640 medium with 10% fetal bovine serum (FBS) added thereto. The medium was centrifuged. The supernatant was discarded, and the cells were then suspended at 1×10^6 cells/mL on RPMI 1640 medium with 3% FBS, and lipopolysaccharide was added to give a final concentration of 10 μg/mL. The culture was inoculated at 1 mL/well to a 24-well plate. A sample compound was added at 1 μL/well, followed by culturing for 3 days. Three days later, the amount of interleukin-1β in each culture was determined by ELISA. Each IC50 value was determined by a comparison in yield with a control to which no test sample was added.

Water solubility test = format: physicochemical; details: for Solubility (%): purified water, from amount of water required for dissolution
Experimental: Experiment 2 (Water Solubility Test) Testing Method
Each sample compound was weighed in the amount shown in Table 3, to which purified water was added in 0.05 mL aliquots. The solubility (%) of the compound was determined based on the amount of water required for its dissolution.

[2] = Oral absorbability test on rats (plasma levels by HPLC); format: in vivo; details: male SD rats, oral 10 mg/5 mL/kg, suspension in 0.5% MC, plasma 0.25-8 hours
Experimental: Experiment 3 (Oral Absorbability Test on Rats)
The compound of Example 83 and the comparative compound 3 were suspended at 2 mg/mL with a 0.5% MC solution in mortars, respectively, and were orally administered to male SD rats at 10 mg/5 mL/kg. Upon elapsed time of 0.25, 0.5, 1, 2, 4, 6 and 8 hours after the administration, blood samples were collected and then centrifuged to provide plasma samples. The plasma levels of the respective compounds were determined by HPLC. […] The compound of Example 83 is, therefore, useful as an orally dosable medicine.

[3] = Oral absorbability test on rats and/or mice; format: in vivo; details: orally administered to mice and/or rats, as in Experiment 3
Description: Experiment 4 (Oral Absorbability Test on Rats and/or Mice)
In a similar manner as in Experiment 3, test compounds of Examples 23, 25, 143, 193, 245, 246, 247, 248 and 249 were orally administered to mice and/or rats to test their oral absorbability.

SMILES	Solubility (%) (Water solubility test)	pIC50 [1]	further results
COc1ccc(-c2cc(CN(C)C)c(=O)n(CC3CC3)n2)cc1F.Cl [Example 14, 2-cyclopropylmethyl-4-dimethylaminomethyl-6-(3-fluoro-4-methoxyphenyl)-2H-pyridazin-3-one hydrochloride]	0.8	–	pIC50 ([1]; Homo sapiens, 72 h): 5.44
Cc1cc(-c2cc(CN3CCN(C)CC3)c(=O)n(CC(C)C)n2)ccc1F.Cl.Cl [Example 83, 6-(4-fluoro-3-methylphenyl)-2-isobutyl-4-(4-methyl-1-piperazinyl)methyl-2H-pyridazin-3-one dihydrochloride]	–	–	Oral absorption (plasma levels, FIG. 1) [2]: good absorption
COc1ccc(-c2cc(CN(CCO)CCO)c(=O)n(CC3CC3)n2)cc1F.Cl [Example 23, 4-N,N-bis(2-hydroxyethyl)aminomethyl-2-cyclopropylmethyl-6-(3-fluoro-4-methoxyphenyl)-2H-pyridazin-3-one hydrochloride]	10	6.48	Oral absorbability (FIGS. 2 to 6) [3]: good absorbability
CNC(=O)c1cc(-c2ccc(OC)c(F)c2)nn(CC2CC2)c1=O [compound 3, reference compound]	<0.001	–	Oral absorption (plasma levels, FIG. 1) [2]: no substantial absorption; Dissolution in the added water (in words) (Water solubility test; 100 mL purified water added): (insoluble)
CSc1ccc(-c2cc(CN(C)C)c(=O)n(CC3CC3)n2)cc1.Cl [Example 153, 2-cyclopropylmethyl-4-dimethylaminomethyl-6-[4-(methylthio)phenyl]-2H-pyridazin-3-one hydrochloride]	0.5	–	pIC50 ([1]; Homo sapiens, 72 h): 6.24; melting point: 230.2 to 232.3 °C
CC(C)Cn1nc(-c2ccc(F)c(F)c2)cc(CN(CCO)CCO)c1=O.Cl [Example 108, 4-N,N-bis(2-hydroxyethyl)aminomethyl-6-(3,4-difluorophenyl)-2-isobutyl-2H-pyridazin-3-one hydrochloride]	>20	5.46	–
Cc1ccc(-c2cc(CN(CCO)CCO)c(=O)n(CC(C)C)n2)cc1 [Example 49, 4-N,N-bis(2-hydroxyethyl)aminomethyl-6-(4-methylphenyl)-2-isobutyl-2H-pyridazin-3-one hydrochloride]	–	5.45	–
